“Also recorded” adds a separate entry of the source. Read-outs that look alike come from different tables or passages of the source.
Assays:
Tomato thrips = experiment: In vitro bio-efficacy, Tomato thrips (Ex. 57)
[1] = tested on: Rice Bacterial Blight (BLB) (Xanthomonas oryzae pv. Oryzae); type: in vivo; conditions: dose 500 PPM
[2] = tested on: Cotton Bacterial Leaf Blight (Xanthomonas citri pv. Malvacearum); experiment: Field trial, cotton bacterial leaf blight (Ex. 96); conditions: dose 500 PPM
[3] = tested on: Potato Bacterial Blight (BLB) (Ralstonia solanacearum); type: in vivo; conditions: dose 500 PPM
tomato seedlings = experiment: Response of tomato plants, greenhouse growth (Ex. 30); type: in vivo; conditions: tomato seedlings, dose 1 ml/gm/lit
Aphid [4] = experiment: whole plant or invertebrate; conditions: 48 h
Mealy Bug [5] = conditions: mealy bug on cotton plants, green house, dose 1 ml/gm/lit. spray
chili seedlings = experiment: Response of chili plants, greenhouse growth (Ex. 31); type: in vivo; conditions: chili seedlings, dose 1 ml/gm/lit
Spodoptera litura [6] = experiment: whole plant or invertebrate; conditions: 72 h
Spodoptera litura [7] = conditions: Spodoptera litura on castor leaves; dose 1 ml/gm/lit.; 10 insects/treatment; 72 hrs after application
Alternaria alternata [8] = experiment: Alternaria leaf spot/blight on inoculated tomato plants (Ex. 28); type: in vivo; conditions: tomato plants, Alternaria alternata; after 7 days; dose 1 ml/gm/lit
Alternaria alternata [9] = experiment: In vitro poisoned food technique against fungus (Ex. 20); type: cell-based; conditions: poisoned food technique, PDA medium, dose 1 ml/gm/lit., after seven days
Aphid [10] = conditions: Dose 1 ml/gm/lit.
Mite [11] = conditions: mite on okra plants, green house, dose 1 ml/gm/lit. spray
Helicoverpa armigera [12] = conditions: Helicoverpa armigera on okra fruits, dose 1 ml/gm/lit., 72 Hrs.
Thrips [13] = conditions: Thrips on cotton leaves; dose 1 ml/gm/lit.; 10 insects/treatment; 48 hrs after application
Aphid [14] = conditions: Aphids on cotton plants, green house; dose 1 ml/gm/lit.; 10 insects/plant, 10 plants/treatment; 48 hrs
Spodoptera litura [15] = conditions: Spodoptera litura 3rd instar on cabbage plants, dose 1 ml/gm/lit. spray
Thrips [16] = experiment: whole plant or invertebrate; conditions: in Gossypium hirsutum, 48 h
Thrips [17] = conditions: thrips on cotton plants, greenhouse, dose 1 ml/gm/lit. spray
[18] = Table 13, effect on plants, descriptive; cited from earlier work
Mealy Bug [19] = conditions: Mealy Bug on cotton leaves, dose 1 ml/gm/lit., 48 Hrs.
Helicoverpa armigera [20] = conditions: Helicoverpa armigera 3rd instar on chickpea plants, dose 1 ml/gm/lit. spray
Mite [21] = conditions: Dose 1 ml/gm/lit.
[22] = read-out: % Corrected Mortality at 48 Hrs.
[23] = read-out: % Mortality at 48 Hrs.
[24] = 48 hrs, corrected for water control
[25] = 10 insects/treatment, 4 replications
[26] = 72 hrs, corrected for water control

CN(C(=O)c1ccccc1)c1cccc(C(=O)Nc2c(Br)cc(C(F)(C(F)(F)F)C(F)(F)F)cc2C(F)(F)F)c1F [Brofranilide]
% Corrected Mortality at 72 hrs. (Tomato thrips; Dose 0.17 ml/lit): 47.37%
% Mortality at 72 hrs. (Tomato thrips; Dose 0.17 ml/lit): 50.0%
Total no of dead insects at 72 hrs. (Tomato thrips; Dose 0.17 ml/lit): 20.0

CON=CNC(=O)c1ccc(C2=NOC(c3cc(Cl)cc(Cl)c3)(C(F)(F)F)C2)cc1C (stereo not shown) [Fluxametamide]
% Corrected Mortality at 72 hrs. (Tomato thrips; Dose 0.8 ml/lit): 57.89%
% Mortality at 72 hrs. (Tomato thrips; Dose 0.8 ml/lit): 60.0%
Total no of dead insects at 72 hrs. (Tomato thrips; Dose 0.8 ml/lit): 24.0

O=[N+]([O-])C(Br)(CO)CO [Bromopol]
% Disease Infection after 1st spray [1]: 22.18%
% Disease Infection after 2nd spray [1]: 19.63%
% Disease Reduction Over Control after 1st spray [1]: 61.71%
% Disease Reduction Over Control after 2nd spray [1]: 74.02%
% Increase in yield over control ([1]; rice): 8.31%
Yield ([1]; rice): 4.09 t/ha
% Increase in yield over control ([2]; cotton): 7.93%
Yield ([2]; cotton): 24.96 qtl/ha
% Disease Infection after 1st spray [2]: 30.65%
% Disease Infection after 2nd spray [2]: 12.86%
% Disease Reduction Over Control after 1st spray [2]: 47.43%
% Disease Reduction Over Control after 2nd spray [2]: 81.68%
% Disease Infection after 1st spray [3]: 24.49%
% Disease Infection after 2nd spray [3]: 21.79%
% Disease Reduction Over Control after 1st spray [3]: 53.59%
% Disease Reduction Over Control after 2nd spray [3]: 71.13%
% Increase in yield over control ([3]; potato): 7.64%
Yield ([3]; potato): 22.24 t/ha

CC12CCC(CC1)C(C)(C)O2 [1,8 cineole]
Plant Height 5th Day (tomato seedlings; 5th day after application): 6.84 cm
Stem Girth 5th Day (tomato seedlings; 5th day after application): 1.74 mm
Plant Height 10th Day (tomato seedlings; 10th day after application): 7.53 cm
Stem Girth 10th Day (tomato seedlings; 10th day after application): 2.16 mm
Plant Height % Increase over pre on 10th Day (tomato seedlings; 10th day): 29.60%
Stem Girth % Increase over pre on 10th Day (tomato seedlings; 10th day): 58.82%
CCI 5th Day (tomato seedlings; 5th day after application): 13.55
CCI % Increase over pre on 10th Day (tomato seedlings; 10th day): 26.08%
Root Length (cm) 10th Day (tomato seedlings; 10th day): 4.07 cm
CCI 10th Day (tomato seedlings; 10th day after application): 14.55
Root Length % Increase over control (tomato seedlings; 10th day, vs water control): 22.24%
mortality at 1 mL or g/L (Aphid [4]; [22]): 55.9%
mortality at 1 mL or g/L (Aphid [4]; [23]): 62.5%
% Mortality at 48 Hrs. (Mealy Bug [5]; 48 hrs after application): 45.00%
Total No. of dead insect at 48 Hrs. (Mealy Bug [5]; 48 hrs after application): 45.00
% Corrected Mortality at 48 Hrs. (Mealy Bug [5]; [24]): 38.89%
CCI 5th Day (chili seedlings; 5th day after application): 9.69
Plant Height (cm) 5th Day (chili seedlings; 5th day after application): 6.99 cm
CCI % Increase over pre on 10th Day (chili seedlings; 10th day): 42.63%
Plant Height % Increase over pre on 10th Day (chili seedlings; 10th day): 49.60%
Root Lenght (cm) 10th Day (chili seedlings; 10th day): 3.26 cm
Stem Girth % Increase over pre on 10th Day (chili seedlings; 10th day): 44.88%
CCI 10th Day (chili seedlings; 10th day after application): 12.58
Plant Height (cm) 10th Day (chili seedlings; 10th day after application): 7.54 cm
Root Lenght % Increase over control (chili seedlings; 10th day, vs water control): 19.07%
mortality at 1 mL or g/L (Spodoptera litura [6]; read-out: % Corrected Mortality at 72 Hrs.): 57.9%
mortality at 1 mL or g/L (Spodoptera litura [6]; read-out: % Mortality at 72 Hrs.): 60%
Total No. of dead insect at 72 Hrs. (Spodoptera litura [7]): 6.00
% Disease reduction over Control (Alternaria alternata [8]): 46.28%
Mean colony Diameter (mm) (Alternaria alternata [9]): 72.00 mm
inhibition of growth at 1 mL or g/L (Alternaria alternata [9]; vs untreated control, read-out: % Inhibition of growth): 18.2%
Total No. of dead insect at 48 Hrs. (Aphid [10]; 10 insects/treatment, 4 replications, cotton leaves): 6.50
% Corrected Mortality at 48 Hrs. (Aphid [10]; 48 hrs): 60.00%
% Mortality at 48 Hrs. (Aphid [10]; 48 hrs): 65.00%
% Mortality at 48 Hrs. (Mite [11]; 48 hrs after application): 22.50%
Total No. of dead insect at 48 Hrs. (Mite [11]; 48 hrs after application): 22.50
% Corrected Mortality at 48 Hrs. (Mite [11]; [24]): 18.42%
Total No. of dead insect at 72 Hrs. (Helicoverpa armigera [12]; [25]): 5.50
% Mortality at 72 Hrs. (Helicoverpa armigera [12]): 55.00%
% Corrected Mortality at 72 Hrs. (Helicoverpa armigera [12]; corrected for water control): 55.00%
Total No. of dead insect at 48 Hrs. (Thrips [13]): 7.00
Total No. of dead insect at 48 Hrs. (Aphid [14]): 62.50
% Mortality at 72 Hrs. (Spodoptera litura [15]; 72 hrs after application): 70.00%
% Corrected Mortality at 72 Hrs. (Spodoptera litura [15]; [26]): 68.42%
mortality at 1 mL or g/L (Thrips [16]; [22]): 65.7%
mortality at 1 mL or g/L (Thrips [16]; [23]): 70%
% Mortality at 48 Hrs. (Thrips [17]; 48 hrs after application): 67.50%
Total No. of dead insect at 48 Hrs. (Thrips [17]; 48 hrs after application): 67.50
% Corrected Mortality at 48 Hrs. (Thrips [17]; [24]): 63.89%
Phytotonic Effect [18]: Boost chlorophyll; also recorded: Trigger the nutrition
Total No. of dead insect at 48 Hrs. (Mealy Bug [19]; [25]): 5.50
% Mortality at 48 Hrs. (Mealy Bug [19]): 55.00%
% Corrected Mortality at 48 Hrs. (Mealy Bug [19]; corrected for water control): 52.63%
% Mortality at 72 Hrs. (Helicoverpa armigera [20]; 72 hrs after application): 52.50%
% Corrected Mortality at 72 Hrs. (Helicoverpa armigera [20]; [26]): 52.50%
Total No. of dead insect at 48 Hrs. (Mite [21]; 10 insects/treatment, 4 replications, okra leaves): 2.50
% Corrected Mortality at 48 Hrs. (Mite [21]; 48 hrs): 18.92%
% Mortality at 48 Hrs. (Mite [21]; 48 hrs): 25.00%

— patent publication US20250351832A1, “PHYTOCHEMICALS AS BIOPESTICIDES AND BIOSTIMULANTS” (KAY BEE BIO ORGANICS PVT. LTD., priority 2024, published 2025)
